According to patent US10781206B2, “Tetrahydropyrazolopyridine compounds for the treatment of infectious diseases” (Hoffmann-La Roche Inc., priority 2017, dated 2020):

What follows are molecules tested on HBV (assay: HBV inhibition assay in HepG2.2.15 cells (extracellular HBV DNA by qPCR)). Settings: Hepatitis B virus, 120 h, extracellular HBV DNA in culture supernatant by qPCR, five days after compound treatment.
Format: cell-based
Text: Example 19: HBV Inhibition Assays
Cell Line and Culture Conditions:
HepG2.2.15 is a stably-transfected cell line containing the HBV genome. It is derived from the hepatoblastoma cell line Hep G2 (American Type Culture Collection, ATCC® HB-8065™) by the published procedures described in reference: MA Selles et al. Proc. Natl. Acad. Sci. USA 1987, 84, 1005-1009. The cell line was maintained in Dulbecco's modified Eagle's medium and nutrient mixture F-12 (DMEM/F-12, Gibco, Cat. #: 11320-033) supplemented with 10% fetal bovine serum (Gibco, Cat. #: 10099-141), 100 U/mL penicillin, 100 μg/mL streptomycin (Gibco, Cat. #: 15140-122), and 0.3 mg/mL of G418 Sulfate (Gibco, Cat. #: 10131-027).
Anti-HBV Activity In Vitro:
HepG2.2.15 cells were seeded into 96-well plates at a density of 3×10^4 cells per well in culture media of 100 μL DMEM/F-12 supplemented with 2.5% fetal bovine serum, 100 U/mL penicillin, 100 μg/mL streptomycin and cultured overnight at 37° C. The test compounds were serially half-log diluted in DMSO, then diluted 100 times in culture media. 100 μL culture media containing diluted compounds were added into the plates to reach 0.5% final concentration of DMSO in every well. Five days after compound treatment, culture supernatant was collected for further analysis.
For quantitative PCR detection of extracellular HBV DNA, culture supernatant was processed by 500 μg/mL Proteinase K (Sigma, Cat. #: P2308) digestion at 50° C. for 1 hour. After heat inactivation of the enzyme at 95° C. for 15 minutes, the samples were subjected to HBV DNA quantification by qPCR. The effective compound concentration at which HBV replication was inhibited by 50% (EC50) was determined.

Q: Which EC50 does the source give for `O=C(Nc1cc(F)c(F)c(F)c1)C1CCn2ncc(N3CCCC3=O)c2C1` (centres unmarked) [Example 1, 3-(2-oxopyrrolidin-1-yl)-N-(3,4,5-trifluorophenyl)-4,5,6,7-tetrahydropyrazolo[1,5-a]pyridine-5-carboxamide] here?
A: 0.37 µM

Q: With `CC1(C)CN(c2cnn3c2CC(C(=O)Nc2cc(F)c(F)c(F)c2)CC3)C(=O)O1` (centres unmarked) [Example 2, 3-(5,5-dimethyl-2-oxo-oxazolidin-3-yl)-N-(3,4,5-trifluorophenyl)-4,5,6,7-tetrahydropyrazolo[1,5-a]pyridine-5-carboxamide] as the molecule, how does the EC50 read?
A: 0.3 µM

Q: Which EC50 does the source give for `O=C(Nc1cc(F)c(F)c(F)c1)C1CCn2ncc(-c3ccc(F)cc3F)c2C1` (centres unmarked) [Example 3, 3-(2,4-difluorophenyl)-N-(3,4,5-trifluorophenyl)-4,5,6,7-tetrahydropyrazolo[1,5-a]pyridine-5-carboxamide] here?
A: 0.16 µM

Q: Which EC50 does the source give for `O=C(Nc1cc(F)c(F)c(F)c1)C1CCn2ncc(C3CCCC3)c2C1` (centres unmarked) [Example 4, 3-cyclopentyl-N-(3,4,5-trifluorophenyl)-4,5,6,7-tetrahydropyrazolo[1,5-a]pyridine-5-carboxamide] here?
A: 0.15 µM

Q: `O=C(Nc1cc(F)c(F)c(F)c1)C1CCn2ncc(N3CCCS3(=O)=O)c2C1` (centres unmarked) [Example 5, 3-(1,1-dioxo-1,2-thiazolidin-2-yl)-N-(3,4,5-trifluorophenyl)-4,5,6,7-tetrahydropyrazolo[1,5-a]pyridine-5-carboxamide] was tested. Which EC50 did it give?
A: 0.039 µM

Q: Which EC50 does the source give for `O=C(Nc1cc(F)c(F)c(F)c1)C1CCn2ncc(N3CCN(Cc4ccccc4)S3(=O)=O)c2C1` (centres unmarked) [Example 6, 3-(5-benzyl-1,1-dioxo-1,2,5-thiadiazolidin-2-yl)-N-(3,4,5-trifluorophenyl)-4,5,6,7-tetrahydropyrazolo[1,5-a]pyridine-5-carboxamide] here?
A: 0.24 µM

Q: With `O=C(Nc1cc(F)c(F)c(F)c1)C1CCn2ncc(N3CCNS3(=O)=O)c2C1` (centres unmarked) [Example 7, 3-(1,1-dioxo-1,2,5-thiadiazolidin-2-yl)-N-(3,4,5-trifluorophenyl)-4,5,6,7-tetrahydropyrazolo[1,5-a]pyridine-5-carboxamide] as the molecule, how does the EC50 read?
A: 0.11 µM

Q: How did the EC50 turn out when `N#CC1CC(=O)N(c2cnn3c2CC(C(=O)Nc2cc(F)c(F)c(F)c2)CC3)C1` (centres unmarked) [Example 8, 3-(4-cyano-2-oxo-pyrrolidin-1-yl)-N-(3,4,5-trifluorophenyl)-4,5,6,7-tetrahydropyrazolo[1,5-a]pyridine-5-carboxamide] was run?
A: 0.19 µM

Q: Which EC50 does the source give for `O=C(Nc1cc(F)c(F)c(F)c1)C1CCn2ncc(N3CCOCC3=O)c2C1` (centres unmarked) [Example 9, 3-(3-oxomorpholin-4-yl)-N-(3,4,5-trifluorophenyl)-4,5,6,7-tetrahydropyrazolo[1,5-a]pyridine-5-carboxamide] here?
A: 0.84 µM

Q: With `Cc1noc(C2CC(=O)N(c3cnn4c3CC(C(=O)Nc3cc(F)c(F)c(F)c3)CC4)C2)n1` (centres unmarked) [Example 10, 3-[4-(3-methyl-1,2,4-oxadiazol-5-yl)-2-oxo-pyrrolidin-1-yl]-N-(3,4,5-trifluorophenyl)-4,5,6,7-tetrahydropyrazolo[1,5-a]pyridine-5-carboxamide] as the molecule, how does the EC50 read?
A: 0.33 µM

Q: For `O=C(Nc1ccsc1)C1CCn2ncc(-c3ccc(F)cc3F)c2C1` (centres unmarked) [Example 11, 3-(2,4-difluorophenyl)-N-(3-thienyl)-4,5,6,7-tetrahydropyrazolo[1,5-a]pyridine-5-carboxamide], which EC50 is on record?
A: 0.59 µM

Q: Which EC50 does the source give for `O=C(Nc1ccc(F)c(C(F)(F)F)c1)C1CCn2ncc(-c3ccc(F)cc3F)c2C1` (centres unmarked) [Example 12, 3-(2,4-difluorophenyl)-N-[4-fluoro-3-(trifluoromethyl)phenyl]-4,5,6,7-tetrahydropyrazolo[1,5-a]pyridine-5-carboxamide] here?
A: 0.87 µM

Q: `N#Cc1cc(NC(=O)C2CCn3ncc(-c4ccc(F)cc4F)c3C2)ccc1F` (centres unmarked) [Example 13, N-(3-cyano-4-fluoro-phenyl)-3-(2,4-difluorophenyl)-4,5,6,7-tetrahydropyrazolo[1,5-a]pyridine-5-carboxamide] was tested. Which EC50 did it give?
A: 0.21 µM

Q: `Cc1cc(NC(=O)C2CCn3ncc(-c4ccc(F)cc4F)c3C2)ccc1F` (centres unmarked) [Example 14, 3-(2,4-difluorophenyl)-N-(4-fluoro-3-methyl-phenyl)-4,5,7-tetrahydropyrazolo[1,5-a]pyridine-5-carboxamide] was tested. Which EC50 did it give?
A: 0.089 µM

Q: How did the EC50 turn out when `O=C(Nc1cc(F)nc(F)c1)C1CCn2ncc(-c3ccc(F)cc3F)c2C1` (centres unmarked) [Example 15, 3-(2,4-difluorophenyl)-N-(2,6-difluoro-4-pyridyl)-4,5,6,7-tetrahydropyrazolo[1,5-a]pyridine-5-carboxamide] was run?
A: 0.45 µM

Q: Which EC50 does the source give for `O=C(Nc1ccnc(F)c1)C1CCn2ncc(-c3ccc(F)cc3F)c2C1` (centres unmarked) [Example 16, 3-(2,4-difluorophenyl)-N-(2-fluoro-4-pyridyl)-4,5,6,7-tetrahydropyrazolo[1,5-a]pyridine-5-carboxamide] here?
A: 0.35 µM

Q: `Cc1nc(C2CC(=O)N(c3cnn4c3CC(C(=O)Nc3cc(F)c(F)c(F)c3)CC4)C2)no1` (centres unmarked) [Example 18, 3-[4-(5-methyl-1,2,4-oxadiazol-3-yl)-2-oxo-pyrrolidin-1-yl]-N-(3,4,5-trifluorophenyl)-4,5,6,7-tetrahydropyrazolo[1,5-a]pyridine-5-carboxamide] was tested. Which EC50 did it give?
A: 0.39 µM
